In patent US20080004247A1, “Combinations of Statins with Bronchodilators” (ASTRAZENECA AB, priority 2004, published 2008):

Assay: Meta-analysis of 2 one-year clinical trials: incidence of severe COPD exacerbations with and without concomitant statins
Type: in vivo, patients
Details: severe exacerbations = need for a treatment course of oral corticosteroids
Experimental: A meta-analysis was performed from 2 one-year clinical trials in moderate to severe COPD. Patients treated with budesonide (Pulmicort®), formoterol (Oxis®), formoterol+budesonide (Symbicort®) or Placebo were analysed with and without statins as concomitant medication. The incidence of severe exacerbations, defined as need for a treatment course of oral corticosteroids, was determined.

[1] = PLUS STATINS as concomitant medication

| Compound | Incidence of exacerbations per year (EXCLUDING STATINS) | Incidence of exacerbations per year [1] |
| --- | --- | --- |
| COc1ccc(CC(C)NCC(O)c2ccc(O)c(NC=O)c2)cc1 (stereo not shown) [Formoterol, formoterol] | 1.0 (n = 388) per year | 0.4 (n = 9) per year |
| CCCC1O[C@@H]2C[C@H]3[C@@H]4CCC5=CC(=O)C=C[C@]5(C)[C@H]4[C@@H](O)C[C@]3(C)[C@]2(C(=O)CO)O1 (stereo partly shown) [Budesonide, budesonide] | 0.9 (n = 379) per year | 0.7 (n = 8) per year |
